# Test results reported in publication PMC10730845, “Endoxifen downregulates AKT phosphorylation through protein kinase C beta 1 inhibition in ERα+ breast cancer” (NPJ Breast Cancer, 2023).
# Values joined by “and” are separate entries in the source; they are usually repeats but may differ in a detail not shown here. Identical values can stand only once.
# Biological target: PKCβ1 (Homo sapiens, UniProt P05771)
# Assay: In vitro kinase assay, PKCβ1 kinase activity
# Assay type: biochemical
# Conditions: 10 μM ATP, three-fold serial dilution from 50 μM, Fig. 6d
# PKCβ1, sequence (P05771 whole entry): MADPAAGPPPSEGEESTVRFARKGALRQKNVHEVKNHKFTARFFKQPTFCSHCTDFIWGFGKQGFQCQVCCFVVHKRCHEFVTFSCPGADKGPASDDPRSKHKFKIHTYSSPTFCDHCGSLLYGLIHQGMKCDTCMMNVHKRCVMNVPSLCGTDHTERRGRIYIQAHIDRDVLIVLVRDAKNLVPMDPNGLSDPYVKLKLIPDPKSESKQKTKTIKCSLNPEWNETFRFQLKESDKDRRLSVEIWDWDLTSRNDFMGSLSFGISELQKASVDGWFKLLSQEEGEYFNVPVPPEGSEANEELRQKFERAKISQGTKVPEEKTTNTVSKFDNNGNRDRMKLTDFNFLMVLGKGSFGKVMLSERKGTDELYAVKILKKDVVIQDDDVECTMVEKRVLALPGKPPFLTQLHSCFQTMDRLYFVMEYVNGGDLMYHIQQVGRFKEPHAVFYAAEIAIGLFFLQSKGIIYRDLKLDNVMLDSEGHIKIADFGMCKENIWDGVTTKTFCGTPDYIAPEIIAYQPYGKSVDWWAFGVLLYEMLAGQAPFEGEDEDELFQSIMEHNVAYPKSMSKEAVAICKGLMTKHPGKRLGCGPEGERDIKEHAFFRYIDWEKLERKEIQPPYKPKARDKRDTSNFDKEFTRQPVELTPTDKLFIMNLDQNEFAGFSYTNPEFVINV
smiles,measurement,value
"CC/C(=C(\c1ccc(O)cc1)c1ccc(OCCNC)cc1)c1ccccc1 [ENDX, Z-endoxifen]",IC50,0.357 µM and 0.36 µM
